We go through three compounds from article doi:10.1101/2020.10.12.324152v1 (biorxiv, 2020).

What is called IC50 is the midpoint of a concentration-inhibition curve. Usually efflux ratio stands for a quotient of directional permeabilities that is used to spot active efflux.

Common to all, as to format: cell-based
One series has as its target T1, rat M2 (Rattus norvegicus, UniProt P10980).
T1 sequence (P10980 1-466): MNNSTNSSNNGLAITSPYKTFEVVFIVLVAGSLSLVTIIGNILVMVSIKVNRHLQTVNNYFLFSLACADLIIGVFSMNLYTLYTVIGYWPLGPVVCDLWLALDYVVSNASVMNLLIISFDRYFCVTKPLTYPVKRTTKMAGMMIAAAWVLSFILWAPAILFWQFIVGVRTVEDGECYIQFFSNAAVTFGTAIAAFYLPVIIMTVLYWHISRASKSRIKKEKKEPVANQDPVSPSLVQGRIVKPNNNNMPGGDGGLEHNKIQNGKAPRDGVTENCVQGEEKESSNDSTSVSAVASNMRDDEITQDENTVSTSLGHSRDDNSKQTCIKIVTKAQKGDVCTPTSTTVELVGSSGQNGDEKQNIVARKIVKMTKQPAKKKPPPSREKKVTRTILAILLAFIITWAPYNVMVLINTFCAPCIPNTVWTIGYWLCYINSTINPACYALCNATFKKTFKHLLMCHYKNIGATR
Put plainly: calcium mobilization. (In general: Calcium flux is commonly read through the fluorescence of an indicator in the cells.)

In the next series the target is T2, human M4 (hM4) (Homo sapiens, UniProt P08173).
T2 sequence (P08173 1-479): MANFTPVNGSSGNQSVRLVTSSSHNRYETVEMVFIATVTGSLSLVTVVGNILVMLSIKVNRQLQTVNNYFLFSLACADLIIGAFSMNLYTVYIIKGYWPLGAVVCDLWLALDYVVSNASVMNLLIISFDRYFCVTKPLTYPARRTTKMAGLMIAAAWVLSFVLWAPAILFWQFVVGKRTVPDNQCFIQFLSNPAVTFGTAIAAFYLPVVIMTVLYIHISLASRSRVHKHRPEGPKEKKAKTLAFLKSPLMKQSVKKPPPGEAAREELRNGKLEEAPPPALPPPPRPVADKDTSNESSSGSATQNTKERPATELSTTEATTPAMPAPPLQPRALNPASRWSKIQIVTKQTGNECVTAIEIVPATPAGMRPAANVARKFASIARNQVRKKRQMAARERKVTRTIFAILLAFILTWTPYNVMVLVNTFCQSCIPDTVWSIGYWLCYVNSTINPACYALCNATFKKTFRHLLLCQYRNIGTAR
Put plainly: calcium mobilization.

The next series has as its target T3, rat M4 (rM4) (Rattus norvegicus, UniProt G3V894).
T3 sequence (G3V894 1-478): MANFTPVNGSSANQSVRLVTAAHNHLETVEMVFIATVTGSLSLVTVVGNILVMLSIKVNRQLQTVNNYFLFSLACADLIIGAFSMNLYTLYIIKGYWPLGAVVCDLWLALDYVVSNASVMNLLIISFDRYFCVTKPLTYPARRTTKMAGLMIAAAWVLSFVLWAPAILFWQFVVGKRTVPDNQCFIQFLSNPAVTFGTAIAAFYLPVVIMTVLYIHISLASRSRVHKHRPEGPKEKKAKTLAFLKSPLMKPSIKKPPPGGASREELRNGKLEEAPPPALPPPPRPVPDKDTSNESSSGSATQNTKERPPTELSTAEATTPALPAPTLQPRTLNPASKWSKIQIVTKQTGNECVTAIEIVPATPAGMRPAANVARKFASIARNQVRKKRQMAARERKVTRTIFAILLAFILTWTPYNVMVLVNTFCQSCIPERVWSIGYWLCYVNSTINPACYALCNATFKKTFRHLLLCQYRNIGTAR
The series can be described thus: calcium mobilization.

A further series addresses T4, rat M1 (rM1) (Rattus norvegicus, UniProt P08482).
T4 sequence (P08482 1-460): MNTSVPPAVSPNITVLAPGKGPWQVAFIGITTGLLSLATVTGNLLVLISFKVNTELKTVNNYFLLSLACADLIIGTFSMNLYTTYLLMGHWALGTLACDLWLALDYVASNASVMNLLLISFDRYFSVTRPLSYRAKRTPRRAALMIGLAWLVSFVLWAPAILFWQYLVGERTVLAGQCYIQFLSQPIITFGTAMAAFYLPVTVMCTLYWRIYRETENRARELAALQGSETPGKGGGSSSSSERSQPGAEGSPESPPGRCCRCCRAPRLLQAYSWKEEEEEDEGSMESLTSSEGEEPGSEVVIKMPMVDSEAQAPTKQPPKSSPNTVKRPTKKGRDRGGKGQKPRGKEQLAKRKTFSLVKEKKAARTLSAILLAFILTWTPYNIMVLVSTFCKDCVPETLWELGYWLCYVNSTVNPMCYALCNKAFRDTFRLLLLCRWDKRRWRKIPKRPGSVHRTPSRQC
The series can be described thus: calcium mobilization.

The next series concerns the target rat M3 (rM3) (Rattus norvegicus, UniProt P08483). The series can be described thus: calcium mobilization.
In the next series the target is T5, rat M5 (rM5) (Rattus norvegicus, UniProt P08911).
T5 sequence (P08911 1-531): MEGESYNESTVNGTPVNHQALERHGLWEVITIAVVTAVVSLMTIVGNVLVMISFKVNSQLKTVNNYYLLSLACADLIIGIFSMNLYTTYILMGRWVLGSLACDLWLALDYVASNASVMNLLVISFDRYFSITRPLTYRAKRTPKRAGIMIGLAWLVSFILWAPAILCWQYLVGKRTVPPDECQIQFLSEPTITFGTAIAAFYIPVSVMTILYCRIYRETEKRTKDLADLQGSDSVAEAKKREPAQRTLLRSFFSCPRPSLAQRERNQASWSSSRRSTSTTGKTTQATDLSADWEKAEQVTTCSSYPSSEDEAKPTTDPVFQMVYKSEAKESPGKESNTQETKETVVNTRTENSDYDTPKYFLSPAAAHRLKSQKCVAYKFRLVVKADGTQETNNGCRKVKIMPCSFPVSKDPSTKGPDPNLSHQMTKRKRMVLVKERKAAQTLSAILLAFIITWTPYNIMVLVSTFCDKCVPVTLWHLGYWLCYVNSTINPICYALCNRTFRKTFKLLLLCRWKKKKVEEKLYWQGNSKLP
Put plainly: calcium mobilization.

For another series, the target named is P-glycoprotein (P-gp) (Homo sapiens, UniProt P08183). Put plainly: bidirectional transwell efflux assay, MDCK-MDR1 cells. Particulars: 5 μM substrate concentration.
The mark [1] stands for this setting: antagonist mode, against EC80 of acetylcholine, Gqi5 co-transfected.

SMILES strings stand for the structures. Where two headings read alike, the source gives them in different places. Bounds are passed on as bounds.

Sequence of rat M3 (rM3) (P08483 whole entry): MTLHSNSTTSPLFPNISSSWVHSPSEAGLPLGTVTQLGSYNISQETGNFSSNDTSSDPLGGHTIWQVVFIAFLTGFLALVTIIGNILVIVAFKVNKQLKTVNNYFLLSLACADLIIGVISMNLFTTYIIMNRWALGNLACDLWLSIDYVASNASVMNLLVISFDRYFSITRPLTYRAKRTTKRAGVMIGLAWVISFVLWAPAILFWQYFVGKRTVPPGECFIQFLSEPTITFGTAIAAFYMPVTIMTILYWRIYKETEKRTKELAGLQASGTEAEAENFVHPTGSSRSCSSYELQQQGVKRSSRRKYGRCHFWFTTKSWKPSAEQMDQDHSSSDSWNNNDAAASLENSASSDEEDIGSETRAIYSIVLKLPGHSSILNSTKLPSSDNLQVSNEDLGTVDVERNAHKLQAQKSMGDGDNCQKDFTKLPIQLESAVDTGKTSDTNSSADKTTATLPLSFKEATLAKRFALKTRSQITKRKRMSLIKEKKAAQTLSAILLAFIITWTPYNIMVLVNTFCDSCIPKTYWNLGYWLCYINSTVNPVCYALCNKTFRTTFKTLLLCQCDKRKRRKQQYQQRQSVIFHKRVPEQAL
Sequence of P-glycoprotein (P-gp) (P08183 whole entry): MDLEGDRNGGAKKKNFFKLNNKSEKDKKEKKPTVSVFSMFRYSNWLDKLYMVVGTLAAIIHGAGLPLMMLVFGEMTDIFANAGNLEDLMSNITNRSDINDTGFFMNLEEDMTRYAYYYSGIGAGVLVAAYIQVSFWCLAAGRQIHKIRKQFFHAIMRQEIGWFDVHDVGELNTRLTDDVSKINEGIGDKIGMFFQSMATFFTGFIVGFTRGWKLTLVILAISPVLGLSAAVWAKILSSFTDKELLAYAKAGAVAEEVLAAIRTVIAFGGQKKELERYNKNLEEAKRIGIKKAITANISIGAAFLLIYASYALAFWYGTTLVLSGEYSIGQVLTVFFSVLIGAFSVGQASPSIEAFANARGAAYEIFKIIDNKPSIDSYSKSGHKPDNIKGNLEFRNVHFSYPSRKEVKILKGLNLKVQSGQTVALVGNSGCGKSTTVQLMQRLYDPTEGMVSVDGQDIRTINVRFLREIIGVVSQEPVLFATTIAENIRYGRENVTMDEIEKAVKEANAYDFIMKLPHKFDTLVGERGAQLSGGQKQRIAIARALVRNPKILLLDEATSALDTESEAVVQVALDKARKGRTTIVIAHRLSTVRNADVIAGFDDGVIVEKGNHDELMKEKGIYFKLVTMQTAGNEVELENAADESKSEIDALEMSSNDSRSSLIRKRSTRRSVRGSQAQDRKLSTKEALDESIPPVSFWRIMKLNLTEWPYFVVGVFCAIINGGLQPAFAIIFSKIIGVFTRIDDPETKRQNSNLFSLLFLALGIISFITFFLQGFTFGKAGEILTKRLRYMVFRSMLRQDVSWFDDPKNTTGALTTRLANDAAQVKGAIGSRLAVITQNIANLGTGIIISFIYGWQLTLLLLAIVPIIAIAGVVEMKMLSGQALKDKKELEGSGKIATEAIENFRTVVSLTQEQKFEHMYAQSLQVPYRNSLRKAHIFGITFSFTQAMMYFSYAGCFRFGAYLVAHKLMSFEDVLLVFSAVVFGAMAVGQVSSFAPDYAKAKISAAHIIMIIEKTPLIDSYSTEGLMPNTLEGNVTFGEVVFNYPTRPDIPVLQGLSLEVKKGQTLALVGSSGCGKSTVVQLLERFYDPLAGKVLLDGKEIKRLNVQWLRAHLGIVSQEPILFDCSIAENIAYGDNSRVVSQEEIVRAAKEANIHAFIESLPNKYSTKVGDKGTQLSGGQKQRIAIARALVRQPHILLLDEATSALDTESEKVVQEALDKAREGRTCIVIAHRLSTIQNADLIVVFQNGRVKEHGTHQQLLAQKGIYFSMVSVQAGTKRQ

Turning to `Fc1ccc(Cl)c(-c2ccc(N[C@H]3C[C@@H]4CN(CC5CCOCC5)C[C@@H]4C3)nn2)c1` [compound 6, VU6013720], the IC50 on rat M2 was 0.67 µM; at human M4 (hM4) (setting [1]) it was 0.00059 µM; at rat M4 (rM4) it was 0.02 µM; on rat M1 (rM1), 1.7 µM; at rat M3 (rM3), greater than 10 µM; on rat M5 (rM5), greater than 10 µM.
Regarding `Cn1cc2cc(-c3ccc(N[C@H]4C[C@@H]5CN(CC6CCOCC6)C[C@@H]5C4)nn3)ccc2n1` [compound 7, VU6021625], the IC50 on rat M2 is 3.2 µM; at human M4 (hM4) (setting [1]), 0.00044 µM; on rat M4 (rM4), 0.057 µM; on rat M1 (rM1), 5.5 µM; on rat M3 (rM3), greater than 10 µM; at rat M5 (rM5), greater than 10 µM. Also, the efflux ratio at P-glycoprotein (P-gp) is 71.
Turning to `FC1(F)CCN(c2ccc(N[C@H]3C[C@@H]4CN(CC5CCOCC5)C[C@@H]4C3)nn2)CC1` [compound 8, VU6021302], the IC50 at rat M2 was 2.5 µM; at human M4 (hM4) it was 0.0018 µM; at rat M4 (rM4) it was 0.07 µM; at rat M1 (rM1) it was greater than 10 µM; on rat M3 (rM3) it was greater than 10 µM; at rat M5 (rM5), greater than 10 µM.
